According to publication PMC9454848, “BMS-986158, a Small Molecule Inhibitor of the Bromodomain and Extraterminal Domain Proteins, in Patients with Selected Advanced Solid Tumors: Results from a Phase 1/2a Trial” (Cancers, 2022):
Entries after “also recorded” stand apart in the source; their conditions may differ.

Tested on: patients with advanced solid tumors
Assay: ECG ΔQTcF exposure-response at single dose
Type: in vivo
Description: Triplicate ECG measures were used to assess changes from baseline in the QT interval adjusted for heart rate using Fridericia’s formula (ΔQTcF) following a single dose of BMS-986158 at C1D1. ΔQTcF was evaluated in the context of exposure response for BMS-986158 and its metabolite of interest.
All treated patients who received ≥1 dose of BMS-986158 were evaluated in the safety population. […] All treated patients with available and sufficient serum or plasma samples for the corresponding analytes were included in the PK analyses. […] ECG parameters were evaluated in a categorical analysis, and linear mixed-effects regression modeling was used to describe the quantitative relationship between ΔQTcF and time-matched serum concentrations of BMS-986158 or its metabolite at a single dose.

Cc1nnn(C)c1-c1cnc2c3ccc(C(C)(C)O)cc3n([C@H](c3ccccc3)C3CCOCC3)c2c1 [BMS-986158]
Effect on ΔQTcF (single dose of BMS-986158): neither BMS-986158 nor its metabolite had a statistically significant effect; also recorded: not found to cause significant QTc prolongation | Predicted increase in ΔQTcF at highest observed Cmax (single dose, linear mixed-effects model): < 5 ms
